Measured values taken from US20140378460A1, “COMPOSITIONS AND METHODS FOR TREATING NEURODEGENERATIVE DISEASE” (COGNITION THERAPEUTICS, INC., priority 2011, published 2014).
Like-named read-outs stand apart in the source and are kept apart here.

Assays:
Sigma-1 receptors [1] = biological target: Sigma-1 receptors (Homo sapiens, UniProt Q99720); test: Sigma-1 competitive radioligand binding, [3H](+)pentazocine, Jurkat cell membranes
Protocol: (§1) Reactions were terminated by rapid filtration through Whatman GF/C filters using a Brandel 12R cell harvester followed by two washes with ice-cold buffer. Radioactivity on the dried filter discs was measured using a liquid scintillation analyzer (Tri-Carb 2900TR; PerkinElmer Life and Analytical Sciences). The displacement curves were plotted and the Ki values of the test ligands for the receptor subtypes were determined using GraphPad Prism (GraphPad Software Inc., San Diego, Calif.). The percentage specific binding was determined by dividing the difference between total bound (disintegrations per minute) and nonspecific bound (disintegrations per minute) by the total bound (disintegrations per minute).

sigma-2 receptor [2] = biological target: T1, sigma-2 receptor (Rattus norvegicus, UniProt Q5U3Y7); test: Sigma-2 competitive radioligand binding, [3H]DTG with 300 nM (+)pentazocine, rat cerebral cortex membranes
T1 sequence (Q5U3Y7 1-176): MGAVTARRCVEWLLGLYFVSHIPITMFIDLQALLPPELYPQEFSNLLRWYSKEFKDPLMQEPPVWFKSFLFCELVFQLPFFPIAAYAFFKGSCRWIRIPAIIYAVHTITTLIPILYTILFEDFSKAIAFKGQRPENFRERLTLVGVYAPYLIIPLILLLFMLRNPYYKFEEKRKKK
Protocol: as §1

[3] = tested on: Abeta oligomer-induced synapse loss in primary hippocampal neurons; test: Synapse loss assay; format: cell-based, rat; conditions: Table 11B
Protocol: In this assay, Abeta oligomers were brought in contact with mature primary neurons in culture and their binding was determined by immunohistochemistry (anti-Abeta antibody) and quantified by image processing. The amount of Abeta in neuronal dendrites is assessed by counting the number of labeled puncta on the neuritis. […] This labeling is associated with synapses, co-localizing with the post-synaptic scaffold protein PSD-95 (Lacor et al., '04). […] The number of synapses can also be quantified in this assay by immunofluorochemistry. Similar procedures for binding assays can be found in the literature. […] Review.
Primary hippocampal neuronal culture was established as in the membrane trafficking assay above. […] Pretreatment with compounds to be tested lasted for 1 hr and addition of Abeta oligomers or no oligomer (vehicle alone) in a final concentration of 70 ul was followed by incubation for an additional 23 hrs.
The plates were then washed 3× with PBS for 5 min each. The plates were blocked at RT for 1 hr in 5% goat serum and 0.5% Triton X-100 in PBS. […] Primary antibodies were incubated overnight at 4° C. The plates were then washed 3× with PBS for 5 min each. […] Secondary antibodies were incubated at RT for 1 hr. The plates were washed once with PBS. DAPI (4′,6-diamidino-2-phenylindole, Invitrogen) was then applied at 0.03 ug/ul and incubated at RT for 5 min, then washed with PBS.

[4] = tested on: Abeta oligomer-induced membrane trafficking deficits in primary hippocampal neurons; test: Membrane trafficking/exocytosis (MTT) assay; format: cell-based, rat
Protocol: The methods used to generate the results were as follows in the Membrane Trafficking/Exocytosis (MTT) assay.
Primary hippocampal neurons from E18 Sprague-Dawley rat embryos were plated at optimized concentrations in 384 well plates in NB media (Invitrogen). Neurons were maintained in cultures for 3 weeks, with twice weekly feeding of NB media with N2 supplement (Invitrogen).
A test compound was added to cells at concentrations ranging from 100 uM to 0.001 nM followed by addition of vehicle or Abeta oligomer preparations (3 μM total Abeta protein concentration), and incubated for 1 to 24 hr at 37° C. in 5% CO2. MTT reagent (3-(4,5-dimethylthizaol-2-yl)-2,5diphenyl tetrazolium bromide) (Roche Molecular Biochemicals) was reconstituted in phosphate buffered saline to 5 mg/mL. 10 μl, of MTT labeling reagent is added to each well and incubated at 37° C. for 1 h, then imaged. Exocytosis was assessed by automated microscopy and image processing to quantify the amount of endocytosed and exocytosed formazan.
Each assay plate was formatted so that compounds are tested with and without Abeta oligomer on each plate.

sigma-2 receptor [5] = biological target: T1, sigma-2 receptor; parameters: other: known prior art compounds, published studies; conditions: cited from earlier work
Sigma-1 receptors [6] = conditions: known prior art compounds; cited from earlier work
Sigma-1 receptors [7] = biological target: T2, Sigma-1 receptors (UniProt Q60492); conditions: cited from earlier work
T2 construct: other: known prior art compounds, published studies

[8] = Sigma 1 Binding Ki (nM), Table 2, own compounds
[9] = Sigma 2 Binding Ki (nM), Table 2, own compounds
[10] = dosed prior to Abeta oligomer addition, read-out: EC50 in inhibiting amyloid beta effect in Cell Measured by Membrane Trafficking Assay
[11] = Table 11C, known prior art compounds, read-out: Inhibition Abeta oligomer-induced Membrane Trafficking EC50
[12] = Rattus norvegicus, Hippocampal neuron, dosed prior to Abeta oligomer addition, read-out: EC50 in inhibiting amyloid beta effect in Cell Measured by Membrane Trafficking Assay
[13] = scaffold drawing 245, R' varied, read-out: Membrane Trafficking EC50

Chain of Sigma-1 receptors (Homo sapiens, UniProt Q99720) (Q99720 whole entry): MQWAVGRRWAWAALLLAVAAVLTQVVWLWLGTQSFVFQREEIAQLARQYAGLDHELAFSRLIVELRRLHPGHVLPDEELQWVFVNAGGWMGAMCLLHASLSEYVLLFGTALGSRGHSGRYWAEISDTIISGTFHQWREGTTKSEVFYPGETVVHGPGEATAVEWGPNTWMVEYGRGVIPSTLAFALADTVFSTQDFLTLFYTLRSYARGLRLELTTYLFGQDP

With `COc1cc(CCC(C)NCc2ccc(C(F)(F)F)cc2)ccc1O` (single isomer, unassigned) [II (+) isomer] the Ki (Sigma-1 receptors [1]; S1 binding Ki (nM), Table 11B) was 100 nM, the Ki (Sigma-1 receptors [1]; [8]) was 100 nM and the Ki (sigma-2 receptor [2]; S2 binding Ki (nM), Table 11B) was 80 nM. It also gave a Ki (sigma-2 receptor [2]; [9]) of 52 nM, a Block synapse loss [3] of 47% and an EC50 ([4]; Rattus norvegicus, Hippocampal neuron, Table 11B, read-out: Inhibition Abeta oligomer-induced Membrane Trafficking EC50) of 5600 nM. For the same molecule, the “Functional Neuronal Phenotype” value ([4]; Table 11B) was “Antagonist”.
Molecule `COc1cc(CCC(C)NCc2ccc(C(F)(F)F)cc2)ccc1O` (single isomer, unassigned) [II (−) isomer] has a Ki (Sigma-1 receptors [1]; S1 binding Ki (nM), Table 11B) of 46 nM, a Ki (Sigma-1 receptors [1]; [8]) of 46 nM and a Ki (sigma-2 receptor [2]; S2 binding Ki (nM), Table 11B) of 63 nM. For the same molecule, the Ki (sigma-2 receptor [2]; [9]) was 63 nM, the Block synapse loss [3] was 0% and the “Functional Neuronal Phenotype” value ([4]; Table 11B) was “Antagonist”.
`COc1cc(CCC(C)NCc2ccc(C(F)(F)F)cc2)ccc1O` (single isomer, unassigned; (+)) [(+) enantiomer of Cpd II] showed an EC50 ([4]; read-out: EC 50 in screening assay using single concentration of Abeta oligomer) of 5600 nM.
Work on `COc1cc(CCC(C)NCc2ccc(C(F)(F)F)cc2)ccc1O` (single isomer, unassigned; (+)) [(+) enantiomer] yielded an EC50 [4, 10] of 5600 nM.
In the case of `COc1cc(CCC(C)NCc2ccc(C(F)(F)F)cc2)ccc1O` (single isomer, unassigned; (-)) [(−) enantiomer], the EC50 [4, 10] is reported as 10900 nM.
In the case of `CN(CCc1ccc(Cl)c(Cl)c1)CCN1CCCC1` [BD1008], the Ki (sigma-2 receptor [5]; Table 11C, read-out: S2 binding Ki) is given as 8 nM, the Ki (sigma-2 receptor [5]; Table 11D, read-out: Sigma-2 Receptor Ki) is given as 8 nM and the Ki (sigma-2 receptor [5]; known prior art compounds, published studies, read-out: Sigma 2 Binding Ki) is given as 8 nM. The “Sigma 1 (Type of Activity)” value (Sigma-1 receptors [6]) was “(antagonist)”, the “Functional Neuronal Phenotype” value ([4]; Table 11C) was “Antagonist” and the EC50 [4, 11] was 1500 nM. For the same molecule, the “Functional Neuronal Phenotype” value ([4]; Table 11D) was “Antagonist” and the IC50 ([4]; Table 11D, read-out: Membrane trafficking IC50) was 1500 nM.
In the case of `CN1CCN(CCc2ccc(Cl)c(Cl)c2)CC1` [BD1063], the Ki (Sigma-1 receptors [7]; Table 11C, read-out: S1 binding Ki) is listed as 8.8 nM, the Ki (Sigma-1 receptors [7]; known prior art compounds, published studies, read-out: Sigma 1 Binding Ki) is listed as 8.8 nM and the “Sigma 1 (Type of Activity)” value (Sigma-1 receptors [6]) is listed as “(antagonist)”. The “Functional Neuronal Phenotype” value ([4]; Table 11C) was “Inactive” and the EC50 [4, 11] was > 30000 nM.
In the case of `CC(C)=CC(C[C@H](C)c1ccc(C)cc1)NCC(C)C` (some centres unmarked) [Compound IXa], the Ki (Sigma-1 receptors [1]) is reported as 89 nM, the Ki (sigma-2 receptor [2]) is reported as 21 nM and the “Max Inhibition of Abeta (%)” value [4] is reported as 76%. For the same molecule, the EC50 [4, 12] was 4900 nM.
With `Cc1ccc([C@@H](C)CC(CC(C)(C)O)NCC(C)C)cc1` (some centres unmarked) [Compound IXb] the Ki (Sigma-1 receptors [1]) was 190 nM, the Ki (sigma-2 receptor [2]) was 23 nM and the “Max Inhibition of Abeta (%)” value [4] was 97%. It also gave an EC50 [4, 12] of 6900 nM.
For `Cc1ccccc1NC(=N)Nc1ccccc1C` [DTG], the “Sigma 1 (Type of Activity)” value (Sigma-1 receptors [6]) is listed as “(agonist)”, the “Max Inhibition of Abeta (%)” value [4] is listed as 23% and the EC50 ([4]; Rattus norvegicus, Hippocampal neuron, Table 11C, known prior art compounds, read-out: Inhibition Abeta oligomer-induced Membrane Trafficking EC50) is listed as > 20000 nM. For the same molecule, the “Functional Neuronal Phenotype” value ([4]; Table 11C) was “Inactive”.
`COc1cc(CCC(C)NCc2ccc(Cl)cc2)ccc1O` (centres unmarked) [Entry 2] showed an EC50 [4, 13] of 12000 nM.
Molecule `COc1cc(CCC(C)NCc2ccccc2)ccc1O` (centres unmarked) [Entry 3] has an EC50 [4, 13] of 20000 nM.
With `COc1cc(CCC(C)NCCC(C)C)ccc1O` (centres unmarked) [Entry 4] the EC50 [4, 13] was > 30000 nM.
